The target in one experiment is CDC7 (Homo sapiens, UniProt O00311). Nature of the experiment: CDC7 inhibition, biochemical chemiluminescence assay (Kinase Glo, IC50 determination). The procedure, abridged: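 CDC7 enzyme preincubated with compound 10 min at ambient temperature, then ATP mix in Tris Base added; reaction 90 min at 24-27 °C. Remaining ATP quantified by Kinase Glo luminescence to give IC50.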

The next experiment addresses CK2 (Homo sapiens, UniProt P68400). Nature of the experiment: CK2 inhibition, biochemical chemiluminescence holoenzyme assay (Kinase Glo, IC50 determination). To be noted: Table 1 activity class; symbol given only if active; read-out: CK2 IC50 (Activity C). The procedure, abridged: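 Holoenzyme CK2 assay; compounds pre-incubated with substrate and enzyme, then reacted 150 min at 24-27° C. Remaining ATP measured as luminescence with Kinase Glo, and IC50 derived from the signal.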
(Kinase-Glo measures the ATP left after a reaction by luminescence.)

The target of experiment [1] is PIM (PIM-1, PIM-2, and/or PIM-3). Nature of the experiment: PIM-1, PIM-2 and PIM-3 inhibition, biochemical chemiluminescence assays (Kinase Glo, IC50 determination). The following applies: Table 1 activity class; PIM refers to PIM-1, PIM-2, and/or PIM-3; read-out: PIM IC50 (Activity B).
The mark [2] stands for this setting: Table 1 activity class, symbol given only if active, read-out: CDC7 IC50 (Activity A).
[3] abbreviates: compounds in Table 1, read-out: CDC7 IC50 value.
Where [4] appears, read: CDC7 IC50 (Activity A), Table 1 activity class, symbol given only if active.
The mark [5] stands for this setting: CDC7 IC50 value, compounds in Table 1.

The results in this text go back to patent US20090247559A1 (Exelixis, Inc., priority 2007, published 2009).

SMILES strings stand for the structures. pIC50: −log10 of the molar value. Where a name gives a salt, the structure may show the parent alone. Read-outs that look alike come from different tables or passages of the source.

Chain of CK2 (P68400 whole entry): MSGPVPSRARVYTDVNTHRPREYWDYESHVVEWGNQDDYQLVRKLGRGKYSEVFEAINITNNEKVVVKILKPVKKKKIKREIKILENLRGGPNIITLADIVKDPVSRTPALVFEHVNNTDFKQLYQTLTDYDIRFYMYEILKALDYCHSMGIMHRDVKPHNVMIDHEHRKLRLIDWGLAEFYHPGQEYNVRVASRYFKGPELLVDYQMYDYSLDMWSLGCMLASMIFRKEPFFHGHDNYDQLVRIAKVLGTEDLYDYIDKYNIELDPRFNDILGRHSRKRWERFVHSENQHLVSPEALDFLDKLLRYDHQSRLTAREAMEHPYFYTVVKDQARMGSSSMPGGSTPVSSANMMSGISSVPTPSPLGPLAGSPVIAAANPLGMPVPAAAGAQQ
Chain of CK2 (P67870 whole entry partner): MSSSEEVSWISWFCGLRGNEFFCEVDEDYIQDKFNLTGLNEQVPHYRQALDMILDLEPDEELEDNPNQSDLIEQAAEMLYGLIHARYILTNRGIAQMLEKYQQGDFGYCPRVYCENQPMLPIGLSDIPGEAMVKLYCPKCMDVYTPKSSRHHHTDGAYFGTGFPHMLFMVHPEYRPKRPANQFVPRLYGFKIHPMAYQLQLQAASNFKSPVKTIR
Chain of CDC7 (O00311 whole entry): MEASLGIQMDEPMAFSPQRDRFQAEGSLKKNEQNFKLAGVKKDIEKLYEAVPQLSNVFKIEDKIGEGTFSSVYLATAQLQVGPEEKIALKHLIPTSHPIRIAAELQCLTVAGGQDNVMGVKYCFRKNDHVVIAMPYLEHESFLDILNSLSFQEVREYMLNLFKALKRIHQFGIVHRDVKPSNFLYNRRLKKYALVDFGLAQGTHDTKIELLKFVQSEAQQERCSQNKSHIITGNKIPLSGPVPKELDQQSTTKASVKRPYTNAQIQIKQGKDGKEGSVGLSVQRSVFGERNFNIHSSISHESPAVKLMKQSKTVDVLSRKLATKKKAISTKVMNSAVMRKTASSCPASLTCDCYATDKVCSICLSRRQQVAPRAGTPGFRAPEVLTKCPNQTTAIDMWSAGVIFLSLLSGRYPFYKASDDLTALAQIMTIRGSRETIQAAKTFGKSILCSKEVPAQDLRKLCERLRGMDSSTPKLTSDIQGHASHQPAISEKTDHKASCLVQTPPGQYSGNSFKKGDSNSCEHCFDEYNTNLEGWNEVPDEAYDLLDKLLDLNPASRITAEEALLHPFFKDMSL
Chain of CDC7 (Q9UBU7 whole entry partner): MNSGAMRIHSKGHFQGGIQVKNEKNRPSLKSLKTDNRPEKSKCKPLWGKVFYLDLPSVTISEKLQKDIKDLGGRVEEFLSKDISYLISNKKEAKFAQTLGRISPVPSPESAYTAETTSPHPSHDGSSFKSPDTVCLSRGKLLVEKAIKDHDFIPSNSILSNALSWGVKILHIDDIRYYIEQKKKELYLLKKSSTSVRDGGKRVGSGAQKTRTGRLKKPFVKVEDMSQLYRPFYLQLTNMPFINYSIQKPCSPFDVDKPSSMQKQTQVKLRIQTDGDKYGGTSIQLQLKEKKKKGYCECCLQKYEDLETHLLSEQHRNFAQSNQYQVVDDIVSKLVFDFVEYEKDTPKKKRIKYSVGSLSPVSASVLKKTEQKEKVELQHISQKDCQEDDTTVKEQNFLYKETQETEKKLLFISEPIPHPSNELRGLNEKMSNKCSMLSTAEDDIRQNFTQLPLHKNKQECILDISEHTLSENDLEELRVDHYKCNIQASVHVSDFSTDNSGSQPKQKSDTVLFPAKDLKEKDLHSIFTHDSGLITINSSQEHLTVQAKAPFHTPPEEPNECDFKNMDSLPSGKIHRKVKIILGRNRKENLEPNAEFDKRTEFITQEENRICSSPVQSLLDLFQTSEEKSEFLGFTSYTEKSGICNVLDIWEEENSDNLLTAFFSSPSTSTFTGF

As for `O=c1[nH]c([C@@H]2CCN2)nc2c1oc1ccc(Br)cc12` [Compound 509, 2-[(2S)-azetidin-2-yl]-8-bromo[1]benzofuro[3,2-d]pyrimidin-4(3H)-one], the negative-log IC50 (pIC50) (commonly the IC50 on a negative log10 scale, so that one unit is a factor of ten) on CDC7 (setting [2]) is above 5.00; at CDC7 (setting [3]), above 7.00; at CK2 it was above 5.00; in experiment [1] it was above 5.00.
Take `O=c1[nH]c([C@@H]2Cc3ccccc3N2)nc2c1oc1ccc(Br)cc12` [Compound 510, 8-bromo-2-[(2S)-2,3-dihydro-1H-indol-2-yl][1]benzofuro[3,2-d]pyrimidin-4(3H)-one]: the pIC50 (at CDC7 (setting [2]); at CK2; in experiment [1]) was above 5.00 each time.
For `O=c1[nH]c([C@@H]2C[C@H](O)CN2)nc2c1oc1ccc(Br)cc12` [Compound 511, 8-bromo-2-[(2S,4S)-4-hydroxypyrrolidin-2-yl][1]benzofuro[3,2-d]pyrimidin-4(3H)-one], the negative logarithm of the IC50 (pIC50) at CDC7 (setting [2]) is above 5.00; on CDC7 (setting [3]), above 7.00; at CK2, above 5.00; in experiment [1], above 5.00.
Regarding `O=c1[nH]c([C@@H]2CC(F)(F)CN2)nc2c1oc1ccc(Br)cc12` [Compound 512, 8-bromo-2-[(2S)-4,4-difluoropyrrolidin-2-yl][1]benzofuro[3,2-d]pyrimidin-4(3H)-one], the pIC50 on CDC7 (setting [2]) was above 5.00; at CDC7 (setting [3]), above 7.00; on CK2, above 5.00; in experiment [1], above 5.00.
Regarding `O=c1[nH]c([C@@H]2C[C@H](F)CN2)nc2c1oc1ccc(Br)cc12` [Compound 513, 8-bromo-2-[(2S,4S)-4-fluoropyrrolidin-2-yl][1]benzofuro[3,2-d]pyrimidin-4(3H)-one], the negative-log IC50 (pIC50) was above 5.00 on CDC7 (setting [2]), above 7.00 at CDC7 (setting [3]), above 5.00 on CK2 and above 5.00 in experiment [1].
As to `O=c1[nH]c([C@@H]2C[C@@H](F)CN2)nc2c1oc1ccc(Br)cc12` [Compound 514, 8-bromo-2-[(2S,4R)-4-fluoropyrrolidin-2-yl][1]benzofuro[3,2-d]pyrimidin-4(3H)-one], the pIC50 on CDC7 (setting [2]) is above 5.00; at CDC7 (setting [3]), above 7.00; at CK2, above 5.00; in experiment [1] it was above 5.00.
For the compound `CC1(C)CC[C@@H](c2nc3c(oc4ccc(Br)cc43)c(=O)[nH]2)N1` [Compound 515, 8-bromo-2-[(2S)-5,5-dimethylpyrrolidin-2-yl][1]benzofuro[3,2-d]pyrimidin-4(3H)-one], the negative-log IC50 (pIC50) at CDC7 (setting [2]) was above 5.00; on CDC7 (setting [3]), above 7.00; at CK2, above 5.00; in experiment [1], above 5.00.
As to `CNCc1nc2c(oc3ccc(Br)cc32)c(=O)[nH]1` [Compound 516, 8-bromo-2-[(methylamino)methyl][1]benzofuro[3,2-d]pyrimidin-4(3H)-one], the negative logarithm of the IC50 (pIC50) was above 5.00 on CDC7 (setting [2]), above 7.00 at CDC7 (setting [3]), above 5.00 at CK2 and above 5.00 in experiment [1].
Turning to `CN(C)Cc1nc2c(oc3ccc(Br)cc32)c(=O)[nH]1` [Compound 517, 8-bromo-2-[(dimethylamino)methyl][1]benzofuro[3,2-d]pyrimidin-4(3H)-one], the negative logarithm of the IC50 (pIC50) was above 5.00 at CDC7 (setting [2]), above 7.00 on CDC7 (setting [3]), above 5.00 at CK2 and above 5.00 in experiment [1].
Regarding `CCC(C)N(C)Cc1nc2c(oc3ccc(Br)cc32)c(=O)[nH]1` (stereo not shown) [Compound 518, 8-bromo-2-{[methyl(1-methylpropyl)amino]methyl}[1]benzofuro[3,2-d]pyrimidin-4(3H)-one], the negative-log IC50 (pIC50) at CDC7 (setting [2]) is above 5.00; at CDC7 (setting [3]), above 7.00; at CK2 it was above 5.00; in experiment [1] it was above 5.00.
With `CC[C@@H](C)NCc1nc2c(oc3ccc(Br)cc32)c(=O)[nH]1` [Compound 519, 8-bromo-2-({[(1R)-1-methylpropyl]amino}methyl)[1]benzofuro[3,2-d]pyrimidin-4(3H)-one], the negative-log IC50 (pIC50) was above 5.00 on CDC7 (setting [2]), above 7.00 at CDC7 (setting [3]), above 5.00 on CK2 and above 5.00 in experiment [1].
Take `O=c1[nH]c(CN2CC3CCC2C3)nc2c1oc1ccc(Br)cc12` (stereo not shown) [Compound 520, 2-(2-azabicyclo[2.2.1]hept-2-ylmethyl)-8-bromo[1]benzofuro[3,2-d]pyrimidin-4(3H)-one]: the pIC50 at CDC7 (setting [4]) was above 5.00; against CDC7 (setting [5]), above 7.00; on CK2 it was above 5.00; in experiment [1], above 5.00.
`O=c1[nH]c(CNC2CC2)nc2c1oc1ccc(Br)cc12` [Compound 521, 8-bromo-2-[(cyclopropylamino)methyl][1]benzofuro[3,2-d]pyrimidin-4(3H)-one]: the pIC50 at CDC7 (setting [2]) was above 5.00; at CDC7 (setting [3]) it was above 7.00; at CK2 it was above 5.00; in experiment [1] it was above 5.00.
For `CC[C@H](C)NCc1nc2c(oc3ccc(Br)cc32)c(=O)[nH]1` [Compound 522, 8-bromo-2-({[(1S)-1-methylpropyl]amino}methyl)[1]benzofuro[3,2-d]pyrimidin-4(3H)-one], the negative-log IC50 (pIC50) is above 5.00 on CDC7 (setting [2]), above 7.00 on CDC7 (setting [3]), above 5.00 on CK2 and above 5.00 in experiment [1].
Take `O=C1CC[C@@H](c2nc3c(oc4ccc(Br)cc43)c(=O)[nH]2)N1` [Compound 523, 8-bromo-2-[(2S)-5-oxopyrrolidin-2-yl][1]benzofuro[3,2-d]pyrimidin-4(3H)-one]: the negative-log IC50 (pIC50) was above 5.00 at CDC7 (setting [2]), above 7.00 on CDC7 (setting [3]), above 5.00 on CK2 and above 5.00 in experiment [1].
Consider `O=c1[nH]c([C@@H]2C[C@@H](F)CN2)nc2c1oc1ccc(Cl)cc12` [Compound 526, 8-chloro-2-[(2S,4R)-4-fluoropyrrolidin-2-yl][1]benzofuro[3,2-d]pyrimidin-4(3H)-one], for which the negative-log IC50 (pIC50) is above 5.00 on CDC7 (setting [2]), above 7.00 at CDC7 (setting [3]), above 5.00 at CK2 and above 5.00 in experiment [1].
In the case of `CN1CCC[C@H]1c1nc2c(oc3ccc(Br)cc32)c(=O)[nH]1` [Compound 527, 8-Bromo-2-[(2S)-1-methylpyrrolidin-2-yl][1]benzofuro[3,2-d]pyrimidin-4(3H)-one hydrochloride], the negative logarithm of the IC50 (pIC50) on CDC7 (setting [2]) is above 5.00; on CDC7 (setting [3]), above 7.00; on CK2, above 5.00; in experiment [1], above 5.00.
Take `O=c1[nH]c([C@@H]2C[C@H](O)CN2)nc2c1oc1ccc(Cl)cc12` [Compound 528, 8-chloro-2-[(2S,4S)-4-hydroxypyrrolidin-2-yl][1]benzofuro[3,2-d]pyrimidin-4(3H)-one]: the negative-log IC50 (pIC50) is above 5.00 at CDC7 (setting [2]), above 7.00 at CDC7 (setting [3]), above 5.00 on CK2 and above 5.00 in experiment [1].
With `O=c1[nH]c([C@@H]2CC3CCCCC3N2)nc2c1oc1ccc(Cl)cc12` (stereo partly drawn) [Compound 529, 8-chloro-2-[(2S)-octahydro-1H-indol-2-yl][1]benzofuro[3,2-d]pyrimidin-4(3H)-one], the pIC50 on CDC7 (setting [4]) was above 5.00; at CDC7 (setting [5]), above 7.00; on CK2, above 5.00; in experiment [1] it was above 5.00.
With `COc1ccc2oc3c(=O)[nH]c([C@@H]4CC(F)(F)CN4)nc3c2c1` [Compound 531, 2-[(2S)-4,4-difluoropyrrolidin-2-yl]-8-(methyloxy)[1]benzofuro[3,2-d]pyrimidin-4(3H)-one], the negative-log IC50 (pIC50) is above 5.00 on CDC7 (setting [2]), above 7.00 at CDC7 (setting [3]), above 5.00 at CK2 and above 5.00 in experiment [1].
